Source: the supplement of paper PMC4862054

Assays:
Assay in all cases: normalised response (% of control), CellTox Green; higher = less cell death (100 = DMSO, 0 = benzethonium chloride kill control)
Details in all cases: incubation time: 72 h
[1] = tested on: BT-474
Procedure, shortened: (§1)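 Breast cancer cell lines (20 µl suspension) were seeded into 384-well plates holding compound at 5 concentrations in 10-fold steps over a compound-specific 10,000-fold range, then incubated 72 h. CellTox Green fluorescence (485/520 nm) was read first, then CellTiter-Glo luminescence after 10 min at room temperature. Each plate was normalised to 0.1 % DMSO (100) and a positive kill control (0). Each value is the normalised signal at a single concentration of the series.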

[2] = tested on: BT-549
Procedure, shortened: as §1

[3] = tested on: CAL-120
Procedure, shortened: as §1

[4] = tested on: CAL-148
Procedure, shortened: as §1

[5] = tested on: CAL-51
Procedure, shortened: as §1

[6] = tested on: CAL-85-1
Procedure, shortened: as §1

[7] = tested on: DU-4475
Procedure, shortened: as §1

[8] = tested on: HCC1599
Procedure, shortened: as §1

[9] = tested on: MDA-MB-453
Procedure, shortened: as §1

Row | Compound | normalised response [1] [%] | normalised response [2] [%] | normalised response [3] [%] | normalised response [4] [%] | normalised response [5] [%] | normalised response [6] [%] | normalised response [7] [%] | normalised response [8] [%] | normalised response [9] [%]
1 | CN1CCN(c2ccc3nc(-c4c(N)c5c(F)cccc5[nH]c4=O)[nH]c3c2)CC1 [Dovitinib] (10000 nM) | 99.9 | 121 | 101 | 92.4 | 118 | 86.8 | 101 | 104 | 103
2 | O=c1[nH]c(=O)n([C@H]2C[C@H](O)[C@@H](CO)O2)cc1F [Floxuridine] (1000 nM) | 102 | 111 | 98.4 |  | 71 | 89.6 | 106 | 104 | 110
3 | O=c1[nH]c(=O)n([C@H]2C[C@H](O)[C@@H](CO)O2)cc1F [Floxuridine] (10000 nM) | 104 | 113 | 93.8 | 106 | 53.1 | 26.5 | 103 | 106 | 103
4 | O=c1[nH]cc(F)c(=O)[nH]1 [Fluorouracil] (1000 nM) | 101 | 109 | 105 | 98.5 | 114 | 101 | 105 | 101 | 87.5
5 | O=c1[nH]cc(F)c(=O)[nH]1 [Fluorouracil] (10000 nM) | 105 | 95.8 | 105 | 92.9 | 120 | 75 | 99.2 | 95.2 | 100
6 | C[C@@H]1C=C2C(=O)O[C@@H]3CC[C@H](C1)[C@]23O [Galiellalactone] (5000 nM) | 100 | 117 | 58.8 | 104 | 101 | 106 | 106 | 105 | 103
7 | C[C@@H]1C=C2C(=O)O[C@@H]3CC[C@H](C1)[C@]23O [Galiellalactone] (50000 nM) | 102 | 98.7 | 102 | 103 | 96.6 | 46.6 | 108 | 114 | 107
8 | COC1=C2C[C@@H](C)C[C@H](OC)[C@H](O)[C@@H](C)/C=C(\C)[C@H](OC(N)=O)[C@@H](OC)/C=C\C=C(/C)C(=O)NC(=CC1=O)C2=O [Geldanamycin] (1000 nM) | 95 | 112 | 102 |  | 109 | 91 | 99.2 | 92.2 | 104
9 | COC1=C2C[C@@H](C)C[C@H](OC)[C@H](O)[C@@H](C)/C=C(\C)[C@H](OC(N)=O)[C@@H](OC)/C=C\C=C(/C)C(=O)NC(=CC1=O)C2=O [Geldanamycin] (10000 nM) | 35.9 | 99 | 75.1 | 54.8 | 39.3 | 3.38 | 68.2 | 99.2 | 82
10 | CS(=O)(=O)CCNCc1ccc(-c2ccc3ncnc(Nc4ccc(OCc5cccc(F)c5)c(Cl)c4)c3c2)o1 [Lapatinib] (1000 nM) | 76.4 | 93.4 | 99.2 | 64.5 | 106 | 59.3 | 100 | 107 | 82.5
11 | Cn1cnc2c(F)c(Nc3ccc(Br)cc3F)c(C(=O)NOCCO)cc21 [MEK-162] (100 nM) | 101 | 111 | 99.8 | 98.4 | 103 | 98.2 | 87.3 | 90.6 | 106
12 | Cn1cnc2c(F)c(Nc3ccc(Br)cc3F)c(C(=O)NOCCO)cc21 [MEK-162] (1000 nM) | 101 | 97.4 | 93.1 |  | 89.1 | 79.3 | 68.7 | 94.4 | 95.4
13 | CCOc1cc2ncc(C#N)c(Nc3ccc(OCc4ccccn4)c(Cl)c3)c2cc1NC(=O)/C=C/CN(C)C [Neratinib] (100 nM) | 78.8 | 105 | 106 | 100 | 115 | 93.7 | 106 | 107 | 110
14 | CCOc1cc2ncc(C#N)c(Nc3ccc(OCc4ccccn4)c(Cl)c3)c2cc1NC(=O)/C=C/CN(C)C [Neratinib] (1000 nM) | 77.1 | 101 | 71.7 | 77.3 | 95.8 | 54 | 94.7 | 106 | 99.9
15 | COc1ccc(C2=N[C@@H](c3ccc(Cl)cc3)[C@@H](c3ccc(Cl)cc3)N2C(=O)N2CCNC(=O)C2)c(OC(C)C)c1 [Nutlin-3] (1000 nM) | 100 | 116 | 102 | 102 |  | 108 | 100 | 99.6 | 109
16 | O=C(c1ccc(OCCN2CCCCC2)cc1)c1c(-c2ccc(O)cc2)sc2cc(O)ccc12 [Raloxifene] (10000 nM) | 95.4 | 101 |  | 103 | 108 | 63.3 | 99.6 | 58.4 | 99.2
